Test results published in PubChem BioAssay AID1259407 (Chemical Carcinogenesis Research Information System (CCRIS), 2018).
Activity calls are given as the source filed them. No rule for the calls is given here.

System: CCRIS mutagenicity, Ames/micronucleus/aberration tests
Experiment: CCRIS mutagenicity studies

SMILES: O=CCC=O
- mutagenic call (End Point: IN VITRO CHROMOSOMAL ABERRATIONS, Test System: CHO CELLS, Metabolic Activation: RAT, LIVER, S-9, AROCLOR 1254): inactive; negative
- mutagenic call (Test System: AMES SALMONELLA TYPHIMURIUM, Strain/Indicator: HISD3052, Metabolic Activation: NONE, Method: STANDARD PLATE): active; positive
- mutagenic call (Test System: AMES SALMONELLA TYPHIMURIUM, Strain/Indicator: TA94, Metabolic Activation: NONE, Method: STANDARD PLATE): inactive; negative
- mutagenic call (Test System: AMES SALMONELLA TYPHIMURIUM, Strain/Indicator: TA98, Metabolic Activation: HAMSTER, LIVER, S-9, AROCLOR 1254, Method: PREINCUBATION): inactive; negative
- mutagenic call (Test System: AMES SALMONELLA TYPHIMURIUM, Strain/Indicator: TA98, Metabolic Activation: NONE, Method: PREINCUBATION): inactive; negative
- mutagenic call (Test System: AMES SALMONELLA TYPHIMURIUM, Strain/Indicator: TA98, Metabolic Activation: RAT, LIVER, S-9, AROCLOR 1254, Method: PREINCUBATION): inactive; negative
- mutagenic call (Test System: AMES SALMONELLA TYPHIMURIUM, Strain/Indicator: TA100, Metabolic Activation: HAMSTER, LIVER, S-9, AROCLOR 1254, Method: PREINCUBATION): inactive; negative
- mutagenic call (Test System: AMES SALMONELLA TYPHIMURIUM, Strain/Indicator: TA100, Metabolic Activation: NONE, Method: PREINCUBATION): inactive; negative
- mutagenic call (Test System: AMES SALMONELLA TYPHIMURIUM, Strain/Indicator: TA100, Metabolic Activation: RAT, LIVER, S-9, AROCLOR 1254, Method: PREINCUBATION): inactive; negative
- mutagenic call (Test System: AMES SALMONELLA TYPHIMURIUM, Strain/Indicator: TA102, Metabolic Activation: NONE, Method: PREINCUBATION): active; positive
- mutagenic call (Test System: AMES SALMONELLA TYPHIMURIUM, Strain/Indicator: TA104, Metabolic Activation: NONE, Method: PREINCUBATION): active; positive
- mutagenic call (Test System: AMES SALMONELLA TYPHIMURIUM, Strain/Indicator: TA1535, Metabolic Activation: HAMSTER, LIVER, S-9, AROCLOR 1254, Method: PREINCUBATION): inactive; negative
- mutagenic call (Test System: AMES SALMONELLA TYPHIMURIUM, Strain/Indicator: TA1535, Metabolic Activation: NONE, Method: PREINCUBATION): inactive; negative
- mutagenic call (Test System: AMES SALMONELLA TYPHIMURIUM, Strain/Indicator: TA1535, Metabolic Activation: RAT, LIVER, S-9, AROCLOR 1254, Method: PREINCUBATION): inactive; negative
- mutagenic call (Test System: AMES SALMONELLA TYPHIMURIUM, Strain/Indicator: TA1537, Metabolic Activation: HAMSTER, LIVER, S-9, AROCLOR 1254, Method: PREINCUBATION): inactive; negative
- mutagenic call (Test System: AMES SALMONELLA TYPHIMURIUM, Strain/Indicator: TA1537, Metabolic Activation: NONE, Method: PREINCUBATION): inactive; negative
- mutagenic call (Test System: AMES SALMONELLA TYPHIMURIUM, Strain/Indicator: TA1537, Metabolic Activation: RAT, LIVER, S-9, AROCLOR 1254, Method: PREINCUBATION): inactive; negative
- mutagenic call (Test System: MOUSE LYMPHOMA, Strain/Indicator: L5178Y (TK+/TK-), Metabolic Activation: NONE, Method: SUSPENSION/PLATE): active; positive

SMILES: COC1=CC(=O)O[C@@H](CCc2ccccc2)C1
- mutagenic call (Test System: Mouse lymphoma cells, Strain/Indicator: L5178Y ( tk+/tk-), Metabolic Activation: Human, Liver, S-9, Method: Suspension/plate): inactive; negative

SMILES: COCC(O)Cn1cc([N+](=O)[O-])nc1Cl (stereo not drawn)
- mutagenic call (Test System: AMES SALMONELLA TYPHIMURIUM, Strain/Indicator: TA98, Metabolic Activation: NONE, Method: STANDARD PLATE): inactive; negative
- mutagenic call (Test System: AMES SALMONELLA TYPHIMURIUM, Strain/Indicator: TA98, Metabolic Activation: RAT, LIVER, S-9, Method: STANDARD PLATE): active; positive
- mutagenic call (Test System: AMES SALMONELLA TYPHIMURIUM, Strain/Indicator: TA100, Metabolic Activation: NONE, Method: STANDARD PLATE): active; positive
- mutagenic call (Test System: AMES SALMONELLA TYPHIMURIUM, Strain/Indicator: TA100, Metabolic Activation: RAT, LIVER, S-9, Method: STANDARD PLATE): active; positive
